The text below walks through data of US8591954B2, “Phospholipid-based inhalation system” (Next Breath, LLC, priority 2006, dated 2013).

Entries after “also recorded” stand apart in the source; their conditions may differ.

In data set [1] the test system is A549 cells. Description: Migration of latex beads on A549 cell surface after application of surfactant (microgrid / semi-automated counting). Format: cell-based. The note with it: 4.5 μm latex beads on A549 cells, CELLocate microgrid, surfactant applied directly; p<0.05, ANOVA; water control showed no migration. The source says:
A particularly preferred embodiment of the present invention comprises the identification of molecules to be used in the pMDI to push the medication deeper into the lungs. For this purpose an in vitro technique to visualize and monitor migration of latex beads placed on tissue cells after application of the appropriate surfactant may be used. […] K. Fumoto, […]. […] The microgrid coverslips can be used to monitor and quantify bead movement on cell surfaces reflecting similar characteristics to tracheal and pulmonary tissues. […] The movement of latex beads may then be monitored by counting the beads before adding the surfactant and then again after allowing the surfactant to spread for a period of time (for example 10 seconds). […] The effect of pMDI-delivered surfactant, e.g., PTC, Survanta®, on latex bead movement can be determined using the above cell model. […] Beads in 220 μm^2 virtual square grids along a 220×11,000 μm lane (50 grids in total), predefined using the automated stage controller coupled to the microscope, can be counted and quantified, before (initial) and after (final) application of surfactant. Bead migration along an extended lane can then be monitored. […]

The conditions of data set [2]: 25° C.; cited from earlier work.

In the case of Phosphatidylcholine [PTC], the “migration of latex beads (bead count ratio Final:Initial)” value in data set [1] is “significant migration of latex beads; also recorded: significantly migrate”.

Consider `FC(C(F)(F)F)C(F)(F)F` [HFA-227], for which, in data set [2], the dielectric constant is 3.94.
